Data on seven molecules can be found in DBAASP.

Holding throughout (experiment): ≥ marks a high value that may be exact or a test limit, other limits are often not marked, values filed in µg/mL are converted to µM
The test system of assay [1] is Escherichia coli ATCC 25922.
Assay [2] relates to Xanthomonas axonopodis pv. glycines ISBF 327.
In assay [3] the test system is Staphylococcus aureus ATCC 29313.
Assay [4] has as its system Pseudomonas aeruginosa ATCC 27853.
Assay [5] relates to Erwinia amylovora PMV 6076.
Assay [6] relates to Xanthomonas campestris pv. Vesicatoria 2133-2.
Assay [7] has as its system Pseudomonas syringae pv. syringae EPS 94.
Assay [8] concerns Pseudomonas aeruginosa 447.
In assay [9] the test system is Haemophilus influenzae ATCC 49766.
Assay [10] relates to Enterobacter cloacae.
Assay [11] relates to Enterococcus faecalis ATCC 29212.
Assay [12] has as its system Escherichia coli ML-35p.
In assay [13] the test system is Klebsiella pneumoniae ATCC 13883.
Assay [14] concerns Pseudomonas aeruginosa PAO1.
Assay [15] deals with Haemophilus influenzae ATCC 49247.
Assay [16] deals with Staphylococcus aureus ATCC 43300.
Assay [17] relates to Staphylococcus aureus ATCC 25923.
In assay [18] the test system is Enterobacter cloacae ATCC 13047.
Assay [19] concerns Escherichia coli.
In assay [20] the test system is Candida albicans.
In assay [21] the test system is Klebsiella pneumoniae ATCC 700603.
In assay [22] the test system is Staphylococcus aureus.
Assay [23] relates to Pseudomonas aeruginosa.
Assay [24] concerns Candida albicans ATCC 2002.
Assay [25] concerns Klebsiella aerogenes.
In assay [26] the test system is Staphylococcus epidermidis ATCC 35984.
Assay [27] has as its system Staphylococcus aureus ATCC 33591.
In assay [28] the test system is Staphylococcus aureus ATCC 25325.
Assay [29] deals with Escherichia coli ATCC 35218.
Assay [30] relates to Bacillus subtilis PTCC 4533.
For assay [31], the system named is Escherichia coli PTCC 2433.
Assay [32] has as its system Aspergillus niger.
For assay [33], the system named is Aspergillus fumigatus.
The subject of assay [34] is Pseudomonas aeruginosa PTCC 2834.
Assay [35] deals with Bacillus cereus PTCC 1435.
The test system of assay [36] is Klebsiella pneumoniae PTCC 4231.
For assay [37], the system named is Leuconostoc mesenteroides PTCC 1445.
The test system of assay [38] is Staphylococcus aureus ATCC 25023.

Converted amounts (≈) assume the structure as drawn.

In the case of `CC[C@H](C)[C@H](NC(=O)[C@H](C)NC(=O)[C@H](C)NC(=O)[C@H](C)NC(=O)[C@H](C)NC(=O)[C@H](C)NC(=O)[C@H](C)NC(=O)[C@H](C)N)C(=O)N[C@@H](CCCCN)C(=O)N[C@@H](CCSC)C(=O)N[C@@H](CC(C)C)C(=O)N[C@@H](CCSC)C(=O)N[C@@H](CC(=O)O)C(=O)N[C@@H](CC(C)C)C(=O)N[C@H](C(=O)N[C@@H](CC(N)=O)C(=O)N[C@@H](CCC(=O)O)C(=O)N[C@@H](CCCN=C(N)N)C(=O)N[C@H](C(=O)N[C@@H](CCSC)C(=O)N[C@@H](C)C(=O)N[C@@H](CC(C)C)C(=O)N[C@@H](CC(N)=O)C(=O)N[C@@H](CCCCN)C(=O)N[C@@H](CCCCN)C(=O)N[C@@H](C)C(=O)N[C@@H](CCCCN)C(=O)N[C@@H](CCCCN)C(N)=O)[C@@H](C)CC)C(C)C` [AAAAAAAIKMLMDLVNERIMALNKKAKK], the MIC in assay [1] came out at 10 µM (≈ 29.8 µg/mL); in [2], 1 µM (≈ 2.98 µg/mL); in assay [3] it was 20 µM (≈ 59.7 µg/mL); in assay [4] it was 20 µM (≈ 59.7 µg/mL).

Consider `CC[C@H](C)[C@H](NC(=O)[C@H](CCCCN)NC(=O)[C@H](CCCCN)NC(=O)[C@H](Cc1ccccc1)NC(=O)[C@H](CC(C)C)NC(=O)[C@H](CCCCN)NC(=O)[C@H](CCCCN)NC(=O)[C@H](C)NC(=O)[C@@H]1CCCN1C(=O)CNC(=O)[C@H](C)NC(=O)[C@H](CC(C)C)NC(=O)[C@H](Cc1ccc(O)cc1)NC(=O)[C@H](CCCCN)NC(=O)[C@H](CC(C)C)NC(=O)[C@@H](NC(=O)[C@H](CCCCN)NC(=O)[C@H](CCCCN)NC(=O)[C@H](Cc1ccccc1)NC(=O)[C@H](CC(C)C)NC(=O)[C@H](CCCCN)NC(=O)[C@H](CCCCN)NC(=O)CN)[C@@H](C)CC)C(=O)N[C@@H](CC(C)C)C(=O)N[C@@H](CCCCN)C(=O)N[C@@H](Cc1ccc(O)cc1)C(=O)N[C@@H](CC(C)C)C(=O)O` [GKKLFKKILKYLAGPAKKLFKKILKYL], for which the MIC came to 14.1 µM (≈ 45 µg/mL) in [5], 14.1 µM (≈ 45 µg/mL) in [6] and 8.66 µM (≈ 27.5 µg/mL) in assay [7].

Regarding `CC[C@H](C)[C@H](NC(=O)[C@@H](NC(=O)[C@H](CCCN=C(N)N)NC(=O)[C@@H]1CCCN1C(=O)[C@H](CCCCN)NC(=O)[C@H](CCCCN)NC(=O)[C@H](Cc1ccccc1)NC(=O)[C@H](Cc1ccccc1)NC(=O)[C@H](CCCCN)NC(=O)[C@H](CCCCN)NC(=O)[C@H](C)NC(=O)[C@H](CCCN=C(N)N)NC(=O)[C@H](CCCCN)NC(=O)[C@H](CCCCN)NC(=O)[C@@H](NC(=O)[C@H](CO)NC(=O)[C@H](CC(N)=O)NC(=O)[C@H](CCCCN)NC(=O)[C@H](CC(C)C)NC(=O)[C@H](CCCCN)NC(=O)[C@H](CCCCN)NC(=O)[C@H](Cc1ccccc1)NC(=O)[C@H](Cc1ccccc1)NC(=O)[C@@H](N)CCCCN)C(C)C)C(C)C)C(=O)NCC(=O)N[C@H](C(=O)N[C@@H](CO)C(=O)N[C@H](C(=O)N1CCC[C@H]1C(=O)N[C@@H](Cc1ccccc1)C(=O)O)[C@@H](C)CC)C(C)C` [KFFKKLKNSVKKRAKKFFKKPRVIGVSIPF], the MIC amounted to 1.74 µM (≈ 6.25 µg/mL) in assay [8]; 0.869 µM (≈ 3.13 µg/mL) in assay [9]; 0.869 µM (≈ 3.13 µg/mL) in [10]; 1.74 µM (≈ 6.25 µg/mL) in assay [1]; 6.95 µM (≈ 25 µg/mL) in [11]; 0.869 µM (≈ 3.13 µg/mL) in assay [12]. Moreover, the MIC in assay [13] is 1.74 µM (≈ 6.25 µg/mL); in [14] it was 1.74 µM (≈ 6.25 µg/mL); in assay [15], 0.869 µM (≈ 3.13 µg/mL); in [16], 1.74 µM (≈ 6.25 µg/mL); in [17], 0.869 µM (≈ 3.13 µg/mL); in assay [18], 6.95 µM (≈ 25 µg/mL). Moreover, the MIC is 1.74 µM (≈ 6.25 µg/mL) in assay [19]; over 55.6 µM in assay [20]; 0.869 µM (≈ 3.13 µg/mL) in assay [21]; 1.74 µM (≈ 6.25 µg/mL) in assay [22]; 3.48 µM (≈ 12.5 µg/mL) in assay [23]; 1.74 µM (≈ 6.25 µg/mL) in assay [4]. The MIC was at least 55.6 µM in assay [24] and 1.74 µM (≈ 6.25 µg/mL) in assay [25].

As for `CC[C@H](C)[C@H](NC(=O)[C@H](CCCCN)NC(=O)[C@@H](NC(=O)[C@H](Cc1ccccc1)NC(=O)[C@H](C)NC(=O)[C@H](CCCCN)NC(=O)CNC(=O)[C@H](Cc1ccccc1)NC(=O)[C@H](CCCCN)NC(=O)[C@@H](N)CCCCN)C(C)C)C(=O)N[C@@H](CC(C)C)C(=O)N[C@@H](CCCCN)C(N)=O` [KKFGKAFVKILK], the MIC in assay [26] is at least 64.3 µM; in assay [27], at least 182 µM; in assay [17] it was 182 µM (≈ 256 µg/mL); in [4] it was 16.1 µM (≈ 22.6 µg/mL).

In the case of `CC(C)C[C@H](NC(=O)CNC(=O)[C@@H](NC(=O)[C@H](Cc1cnc[nH]1)NC(=O)[C@H](CCCCN)NC(=O)[C@H](CC(C)C)NC(=O)[C@@H](N)CCCCN)C(C)C)C(=O)N[C@@H](Cc1cnc[nH]1)C(=O)N[C@H](C(=O)NCC(=O)N[C@@H](CCCCN)C(=O)N[C@@H](CC(C)C)C(=O)N[C@@H](CCCCN)C(=O)O)C(C)C` [KLKHVGLHVGKLK], the MIC in assay [11] is 52.3 µM (≈ 76.2 µg/mL); in assay [28], at least 40.2 µM; in [29], at least 43.4 µM; in assay [4], 56 µM (≈ 81.6 µg/mL).

Consider `CC[C@H](C)[C@H](NC(=O)[C@H](CO)NC(=O)[C@H](CCCCN)NC(=O)[C@H](CC(C)C)NC(=O)[C@H](CCCN=C(N)N)NC(=O)[C@@H](N)CC(C)C)C(=O)N[C@H](C(=O)N[C@@H](CO)C(=O)N[C@@H](Cc1ccc(O)cc1)C(=O)N[C@@H](C)C(=O)N[C@@H](CCCCN)C(=O)N[C@@H](CCCCN)C(=O)N[C@H](C(=O)N[C@@H](CC(C)C)C(=O)O)C(C)C)C(C)C` [LRLKSIVSYAKKVL], for which the MIC was determined as 10.9 µM (≈ 17.6 µg/mL) in [30]; 17.5 µM (≈ 28.3 µg/mL) in assay [31]; 15.2 µM (≈ 24.6 µg/mL) in assay [32]; 11.9 µM (≈ 19.3 µg/mL) in assay [33]; 15 µM (≈ 24.2 µg/mL) in assay [34]; 12.6 µM (≈ 20.4 µg/mL) in assay [20]. Also, the MIC was 9.33 µM (≈ 15.1 µg/mL) in [35], 16.5 µM (≈ 26.7 µg/mL) in assay [36] and 12.2 µM (≈ 19.8 µg/mL) in assay [37].

Molecule `CC(C)C[C@H](NC(=O)[C@H](CCCN=C(N)N)NC(=O)[C@H](CC(C)C)NC(=O)[C@H](CC(C)C)NC(=O)[C@H](CC(C)C)NC(=O)[C@H](CC(C)C)NC(=O)[C@H](CC(C)C)NC(=O)[C@H](CCCCN)NC(=O)[C@H](Cc1c[nH]c2ccccc12)NC(=O)[C@@H](N)CCCN=C(N)N)C(N)=O` [RWKLLLLLRL] came in with an MIC in assay [38] of 1.51 µM (≈ 2 µg/mL).
